In patent EP0614464B1, “PEPTIDES AND ANTIBODIES FOR TREATMENT OF RHEUMATOID ARTHRITIS” (PEPTIDE THERAPEUTICS LIMITED, priority 1991, dated 1993):

What was measured:
IgA-α1AT complex = assay: HPLC analysis of in vitro dissociation of purified IgA-α1AT complex; format: biochemical, human; conditions: Table 5; minimum concentration giving complex : free IgA ratio at 20% (base-line 14%); 90 minutes at 37°C; >500µM = no complex dissociation at highest concentration tested
Procedure: The ability of the peptides of the invention to dissociate purified IgA-α1AT complex in vitro was tested as described below. The anti-rheumatic drug D-penicillamine and other synthetic peptides were used as controls. […] The sample was monitored at wavelength 206nm at a flow rate of 1ml/minute with phosphate buffer (0.1M) pH 7.1. […] They represent the ability of the peptides to dissociate the IgA-α1AT complex in vitro. In these experiments, the base-lines level comprises a complex : free IgA ratio of 14% . The minimum concentration of peptide taken to produce a positive dissociation effect is that which results in a complex: free IgA ratio at 20%. In the results tables, all the peptide values are expressed in µMoles.

[1] = test system: alternative complement (C3) pathway; assay: Inhibition of C3-activation: preventing IgA-α1AT complex from activating the alternative complement pathway, rabbit erythrocyte haemolysis read-out; format: biochemical, human; conditions: Table 5; minimum concentration needed to prevent C3 activation
[2] = test system: mouse macrophage cell line (PU 518); assay: Macrophage inhibition assay: IgA-α1AT complex-stimulated release of lysosomal enzymes; format: cell-based; conditions: Table 5, head prints no unit, b70 says all values of the results tables are in µMoles, concentration needed to prevent 50% release of β-glucoromidase
Procedure: A mouse macrophage cell line (PU 518) was stimulated to release lysosomal enzymes by the addition of purified human IgA-α1AT complex. The degree to which this release was then inhibited by the peptides or other drugs was investigated, with the degree of inhibition being indicative of activity; the concentration of peptide or other test drugs giving 50% inhibition being recorded. Briefly the method was as follows:
25µl of peptide or drug was double diluted in […] + 10% foetal calf serum (FCS) in a sterile tissue culture 96 well plate. 25µl of IgA-α1AT complex in RPMI 1640 +10% FCS at about 0.2mg/ml was then added to all wells. 50µl of cells at a concentration of 2 x 10^6 cells/ml in RPMI 1640 + 10% FCS was then added to each well.
Control wells of cells alone and cells + IgA-α1AT complex were also prepared. The plate was then gently mixed and incubated overnight (16hr) at 37°C in a 4% CO2 atmosphere. Plates were then centrifuged at 1200 rpm for 10 minutes in a bench top centrifuge.
40µl of supernatant was then taken from each well and added to a 96 well polystyrene assay plate, to which was added 40µl of 160mM acetate buffer (pH 4.3) containing 2mM phenolphthalein-β-D-glucuronic acid. To obtain a standard curve, dilutions of phenolphthalein in acetate buffer from 100-5µg/ml were also added to separate wells in the assay plate.
The plates were then incubated at 37°C for 4 hours before 150µl of 0.2M glycine/NaOH buffer (pH 10.6) containing 0.2M NaCl was added to stop the reaction.
Plates were then shaken for 3 minutes before the optical density at 570nm was read on a plate reader, and the amount of β-D-glucuronic acid released from the cells calculated. The concentration of peptide or drug giving 50% inhibition of release was then noted.
The results for the macrophage inhibition assays are expressed as the concentration needed to prevent 50% release of β-glucoromidase.

N[C@@H](CS)C(=O)O [Cysteine]
HPLC minimum (IgA-α1AT complex): 250 µM
C' minimum [1]: 16 µM
IC50 [2]: 500 µM
